Experimental data published in patent publication US11572590B2, “Methods for evaluating tumor cell spheroids using 3D microfluidic cell culture device” (Dana-Farber Cancer Institute, Inc., priority 2017, dated 2023).
Like-named read-outs stand apart in the source and are kept apart here.

Experiments:
Assay in all cases: SelectScreen Kinase Profiling, single point inhibition and IC50 for off-target kinases
Format in all cases: biochemical
off-target kinases [1] = biological target: off-target kinases (Homo sapiens, UniProt O75914); settings: PAK3, ZLYTE, ATP Km app
Sequence of off-target kinases (Homo sapiens, UniProt O75914) (O75914 whole entry): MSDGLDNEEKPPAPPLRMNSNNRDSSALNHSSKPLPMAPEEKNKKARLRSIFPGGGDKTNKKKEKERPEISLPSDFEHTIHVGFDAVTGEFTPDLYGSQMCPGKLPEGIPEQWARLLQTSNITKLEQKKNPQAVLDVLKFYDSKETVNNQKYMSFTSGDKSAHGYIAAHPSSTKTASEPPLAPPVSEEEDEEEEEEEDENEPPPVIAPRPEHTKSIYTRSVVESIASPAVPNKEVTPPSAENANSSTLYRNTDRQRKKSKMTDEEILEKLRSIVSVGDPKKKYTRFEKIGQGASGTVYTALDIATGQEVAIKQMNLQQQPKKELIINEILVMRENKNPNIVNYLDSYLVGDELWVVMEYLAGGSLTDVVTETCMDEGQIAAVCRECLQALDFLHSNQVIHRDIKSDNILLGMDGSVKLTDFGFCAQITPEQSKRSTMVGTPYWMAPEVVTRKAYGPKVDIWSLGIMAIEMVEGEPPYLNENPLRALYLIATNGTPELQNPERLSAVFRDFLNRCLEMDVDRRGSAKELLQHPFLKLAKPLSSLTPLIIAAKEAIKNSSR

off-target kinases [2] = biological target: off-target kinases (Homo sapiens, UniProt P06213); settings: INSR, ZLYTE, ATP Km app
Sequence of off-target kinases (Homo sapiens, UniProt P06213) (P06213 28-1382): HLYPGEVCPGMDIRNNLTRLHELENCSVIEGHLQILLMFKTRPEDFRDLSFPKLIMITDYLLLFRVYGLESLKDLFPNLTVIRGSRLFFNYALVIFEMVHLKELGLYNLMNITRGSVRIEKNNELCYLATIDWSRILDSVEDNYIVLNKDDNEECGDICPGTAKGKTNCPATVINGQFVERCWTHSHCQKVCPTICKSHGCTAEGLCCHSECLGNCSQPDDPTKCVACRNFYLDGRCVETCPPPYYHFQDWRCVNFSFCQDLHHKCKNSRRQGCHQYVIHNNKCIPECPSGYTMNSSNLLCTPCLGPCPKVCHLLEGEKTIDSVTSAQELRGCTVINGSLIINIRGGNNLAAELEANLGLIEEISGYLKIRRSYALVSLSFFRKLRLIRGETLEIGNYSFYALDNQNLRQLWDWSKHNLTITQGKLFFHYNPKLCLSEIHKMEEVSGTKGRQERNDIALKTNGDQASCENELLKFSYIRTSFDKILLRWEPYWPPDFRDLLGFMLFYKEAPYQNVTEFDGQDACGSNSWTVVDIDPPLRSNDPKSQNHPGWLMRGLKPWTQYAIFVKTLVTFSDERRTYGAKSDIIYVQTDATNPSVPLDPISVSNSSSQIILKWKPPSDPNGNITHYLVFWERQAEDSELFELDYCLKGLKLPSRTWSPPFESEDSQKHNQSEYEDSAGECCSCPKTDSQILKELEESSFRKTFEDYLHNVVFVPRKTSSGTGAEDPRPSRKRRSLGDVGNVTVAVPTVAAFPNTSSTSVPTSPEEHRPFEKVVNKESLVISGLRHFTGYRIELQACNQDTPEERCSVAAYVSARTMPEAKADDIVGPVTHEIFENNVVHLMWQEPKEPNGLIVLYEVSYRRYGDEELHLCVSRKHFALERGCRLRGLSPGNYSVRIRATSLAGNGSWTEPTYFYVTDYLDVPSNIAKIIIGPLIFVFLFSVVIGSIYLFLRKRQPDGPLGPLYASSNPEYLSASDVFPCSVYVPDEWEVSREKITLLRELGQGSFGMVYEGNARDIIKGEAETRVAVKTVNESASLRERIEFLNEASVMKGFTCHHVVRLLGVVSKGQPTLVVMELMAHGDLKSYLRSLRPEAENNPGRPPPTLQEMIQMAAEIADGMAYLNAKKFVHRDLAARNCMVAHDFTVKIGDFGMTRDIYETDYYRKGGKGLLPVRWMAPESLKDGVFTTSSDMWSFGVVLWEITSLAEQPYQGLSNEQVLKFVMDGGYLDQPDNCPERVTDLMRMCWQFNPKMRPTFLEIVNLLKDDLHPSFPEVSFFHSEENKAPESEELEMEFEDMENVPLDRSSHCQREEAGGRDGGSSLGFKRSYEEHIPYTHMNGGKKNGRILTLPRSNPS

off-target kinases [3] = biological target: off-target kinases (Homo sapiens, UniProt Q08345); settings: DDR1, LanthaScreen Binding
Sequence of off-target kinases (Homo sapiens, UniProt Q08345) (Q08345 19-913): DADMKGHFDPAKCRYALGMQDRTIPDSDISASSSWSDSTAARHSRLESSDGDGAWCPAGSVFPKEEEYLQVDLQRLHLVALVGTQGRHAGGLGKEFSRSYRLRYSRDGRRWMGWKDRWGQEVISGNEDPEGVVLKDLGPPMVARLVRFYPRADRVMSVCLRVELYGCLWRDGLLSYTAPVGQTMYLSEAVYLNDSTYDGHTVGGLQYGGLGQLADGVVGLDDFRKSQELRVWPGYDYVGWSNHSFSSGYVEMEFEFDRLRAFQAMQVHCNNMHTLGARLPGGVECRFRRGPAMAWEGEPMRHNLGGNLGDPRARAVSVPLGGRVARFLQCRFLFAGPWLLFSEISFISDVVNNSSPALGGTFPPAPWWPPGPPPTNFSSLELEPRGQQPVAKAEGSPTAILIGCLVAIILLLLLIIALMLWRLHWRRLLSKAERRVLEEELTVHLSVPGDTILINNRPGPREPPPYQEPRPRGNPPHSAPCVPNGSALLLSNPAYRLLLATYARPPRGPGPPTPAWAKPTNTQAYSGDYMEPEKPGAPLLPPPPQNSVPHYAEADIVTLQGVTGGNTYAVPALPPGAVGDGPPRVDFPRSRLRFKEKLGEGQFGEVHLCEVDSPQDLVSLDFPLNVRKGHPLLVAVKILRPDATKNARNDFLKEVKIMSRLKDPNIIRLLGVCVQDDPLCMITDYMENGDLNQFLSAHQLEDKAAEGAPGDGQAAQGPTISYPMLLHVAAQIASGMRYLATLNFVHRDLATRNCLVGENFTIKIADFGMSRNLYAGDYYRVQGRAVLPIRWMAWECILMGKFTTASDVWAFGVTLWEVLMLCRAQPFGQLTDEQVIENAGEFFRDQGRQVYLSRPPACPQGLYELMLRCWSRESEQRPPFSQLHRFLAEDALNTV

off-target kinases [4] = biological target: off-target kinases (Homo sapiens, UniProt Q86UX6)
Sequence of off-target kinases (Homo sapiens, UniProt Q86UX6) (Q86UX6 whole entry): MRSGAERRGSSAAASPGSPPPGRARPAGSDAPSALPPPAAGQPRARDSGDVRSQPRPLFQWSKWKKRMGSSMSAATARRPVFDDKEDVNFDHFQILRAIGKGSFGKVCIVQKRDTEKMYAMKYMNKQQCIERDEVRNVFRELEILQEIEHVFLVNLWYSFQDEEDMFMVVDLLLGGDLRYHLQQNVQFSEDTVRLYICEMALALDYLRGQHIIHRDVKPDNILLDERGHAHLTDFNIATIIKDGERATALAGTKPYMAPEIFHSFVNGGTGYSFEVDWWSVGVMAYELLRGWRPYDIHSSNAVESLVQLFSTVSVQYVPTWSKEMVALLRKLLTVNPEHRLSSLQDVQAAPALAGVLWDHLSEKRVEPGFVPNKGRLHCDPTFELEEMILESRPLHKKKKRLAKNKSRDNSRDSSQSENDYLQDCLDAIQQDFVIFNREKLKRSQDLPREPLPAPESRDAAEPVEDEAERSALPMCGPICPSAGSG

off-target kinases [5] = biological target: T1, off-target kinases (Homo sapiens, UniProt Q8NE63); settings: HIPK4, ZLYTE, ATP Km app
T1 sequence (Q8NE63 1-616): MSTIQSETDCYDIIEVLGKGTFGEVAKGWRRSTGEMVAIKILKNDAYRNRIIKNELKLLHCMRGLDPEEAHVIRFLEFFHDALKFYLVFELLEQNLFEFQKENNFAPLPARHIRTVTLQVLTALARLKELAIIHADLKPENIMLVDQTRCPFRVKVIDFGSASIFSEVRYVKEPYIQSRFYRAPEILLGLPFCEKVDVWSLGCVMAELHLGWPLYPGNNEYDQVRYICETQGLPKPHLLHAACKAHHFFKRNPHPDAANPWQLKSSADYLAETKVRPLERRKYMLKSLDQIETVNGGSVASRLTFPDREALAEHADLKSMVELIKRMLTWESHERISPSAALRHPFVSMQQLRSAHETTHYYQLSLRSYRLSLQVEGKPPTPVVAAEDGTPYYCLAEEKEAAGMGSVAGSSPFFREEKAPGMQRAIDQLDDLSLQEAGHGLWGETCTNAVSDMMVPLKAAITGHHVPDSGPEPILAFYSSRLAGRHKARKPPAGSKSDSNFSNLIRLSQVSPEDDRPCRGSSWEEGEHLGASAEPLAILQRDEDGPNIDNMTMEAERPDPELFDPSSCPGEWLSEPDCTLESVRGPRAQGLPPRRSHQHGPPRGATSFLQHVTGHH

off-target kinases [6] = biological target: T2, off-target kinases (Homo sapiens, UniProt Q9UPZ9); settings: ICK, LanthaScreen Binding
T2 sequence (Q9UPZ9 1-632): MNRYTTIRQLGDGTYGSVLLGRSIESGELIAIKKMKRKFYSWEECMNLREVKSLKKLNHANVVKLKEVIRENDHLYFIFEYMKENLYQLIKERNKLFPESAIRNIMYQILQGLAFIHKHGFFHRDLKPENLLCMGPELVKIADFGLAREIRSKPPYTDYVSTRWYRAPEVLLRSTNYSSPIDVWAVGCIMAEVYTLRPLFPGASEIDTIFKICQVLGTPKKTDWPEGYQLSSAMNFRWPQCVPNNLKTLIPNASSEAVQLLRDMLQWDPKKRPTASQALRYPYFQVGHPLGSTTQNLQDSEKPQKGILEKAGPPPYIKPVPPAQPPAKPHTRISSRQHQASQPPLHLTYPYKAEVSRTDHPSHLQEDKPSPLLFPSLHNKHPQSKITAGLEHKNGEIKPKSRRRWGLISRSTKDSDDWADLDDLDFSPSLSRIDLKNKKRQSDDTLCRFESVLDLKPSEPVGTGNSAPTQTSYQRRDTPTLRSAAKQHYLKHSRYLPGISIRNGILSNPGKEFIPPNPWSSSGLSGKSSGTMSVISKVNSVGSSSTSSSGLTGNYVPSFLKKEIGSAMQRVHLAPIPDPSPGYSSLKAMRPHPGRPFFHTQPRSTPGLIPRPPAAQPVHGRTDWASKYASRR

Question: Which inhibition (off-target kinases [1]; read-out: % Inhibition 1) does the source give for N#Cc1cc(-c2ncnc(Nc3ccc(N4CCN(C5COC5)CC4)cc3)n2)ccc1OC1CCOCC1 [Compound 1, 5-(4-((4-(4-(oxetan-3-yl)piperazin-1-yl)phenyl)amino)-1,3,5-triazin-2-yl)-2-((tetrahydro-2H-pyran-4-yl)oxy)benzonitrile] here?
Answer: The inhibition was 7%.

Question: And the inhibition (off-target kinases [1]; read-out: % Inhibition 2)?
Answer: Its inhibition is 2%.

Question: And the inhibition (off-target kinases [1]; read-out: % Inhibition Avg)?
Answer: The inhibition was 5%.

Question: What about the inhibition (off-target kinases [2]; read-out: % Inhibition 1) of the same molecule?
Answer: The inhibition was -1%.

Question: What about the inhibition (off-target kinases [2]; read-out: % Inhibition 2) of the same molecule?
Answer: Its inhibition is 1%.

Question: And the inhibition (off-target kinases [2]; read-out: % Inhibition Avg)?
Answer: The inhibition was 0%.

Question: And the inhibition (off-target kinases [3]; read-out: % Inhibition 1)?
Answer: The inhibition was 3%.

Question: What about the inhibition (off-target kinases [3]; read-out: % Inhibition 2) of the same molecule?
Answer: The inhibition was 2%.

Question: What about the inhibition (off-target kinases [3]; read-out: % Inhibition Avg) of the same molecule?
Answer: Its inhibition is 2%.

Question: What about the inhibition (off-target kinases [4]; STK32C (YANK3), LanthaScreen Binding, read-out: % Inhibition 1) of the same molecule?
Answer: The inhibition was -4%.

Question: What about the inhibition (off-target kinases [4]; STK32C (YANK3), LanthaScreen Binding, read-out: % Inhibition 2) of the same molecule?
Answer: Its inhibition is 3%.

Question: What about the inhibition (off-target kinases [4]; read-out: % Inhibition Avg) of the same molecule?
Answer: Its inhibition is -1%.

Question: And the inhibition (off-target kinases [5]; read-out: % Inhibition 1)?
Answer: The inhibition was 18%.

Question: What about the inhibition (off-target kinases [5]; read-out: % Inhibition 2) of the same molecule?
Answer: The inhibition was 14%.

Question: What about the inhibition (off-target kinases [5]; read-out: % Inhibition Avg) of the same molecule?
Answer: Its inhibition is 16%.

Question: What about the inhibition (off-target kinases [6]; read-out: % Inhibition 1) of the same molecule?
Answer: The inhibition was 22%.

Question: And the inhibition (off-target kinases [6]; read-out: % Inhibition 2)?
Answer: Its inhibition is 22%.

Question: And the inhibition (off-target kinases [6]; read-out: % Inhibition Avg)?
Answer: Its inhibition is 22%.
